IC50 data for 24 compounds are collected here from patent US8962671B2, “Amino-substituted 3-heteroaroylamino-propionic acid derivatives and their use as pharmaceuticals” (Sanofi, priority 2011, dated 2015).

SMILES strings stand for the structures.

This assay has as its target T1, Recombinant human cathepsin A (Homo sapiens, UniProt P10619).
T1 construct: Recombinant human cathepsin A (residues 29-480, with a C-terminal 10-His tag); 10-His (C); purchased R&D Systems 1049-SE
T1 sequence (P10619 29-326 limits assumed): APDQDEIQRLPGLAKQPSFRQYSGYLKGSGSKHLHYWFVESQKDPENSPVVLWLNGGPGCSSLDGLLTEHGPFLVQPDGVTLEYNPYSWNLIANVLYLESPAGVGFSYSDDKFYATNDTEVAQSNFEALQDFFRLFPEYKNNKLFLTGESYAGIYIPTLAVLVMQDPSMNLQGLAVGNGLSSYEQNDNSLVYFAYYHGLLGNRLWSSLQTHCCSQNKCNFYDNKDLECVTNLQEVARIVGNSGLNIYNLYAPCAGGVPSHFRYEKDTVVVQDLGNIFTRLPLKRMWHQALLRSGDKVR
T1 sequence (P10619 327-480 limits assumed): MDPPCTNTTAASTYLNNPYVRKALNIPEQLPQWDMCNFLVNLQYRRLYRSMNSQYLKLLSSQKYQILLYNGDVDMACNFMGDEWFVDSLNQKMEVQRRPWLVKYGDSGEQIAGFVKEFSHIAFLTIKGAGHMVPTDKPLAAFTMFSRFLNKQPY
As to the kind of experiment: Cathepsin A inhibitory activity. The settings on record: activated recombinant human cathepsin A 833 ng/ml, Bodipy FL-labeled bradykinin 2 μM, pH 5.5, 15 min room temperature. It is filed as biochemical. As for the experimental part: a) Cathepsin a Inhibitory Activity
Recombinant human cathepsin A (residues 29-480, with a C-terminal 10-His tag; R&D Systems, #1049-SE) was proteolytically activated with recombinant human cathepsin L (R&D Systems, #952-CY). Briefly, cathepsin A was incubated at 10 μg/ml with cathepsin L at 1 μg/ml in activation buffer (25 mM 2-(morpholin-4-yl)-ethanesulfonic acid (MES), pH 6.0, containing 5 mM dithiothreitol (DTT)) for 15 min at 37° C. Cathepsin L activity was then stopped by the addition of the cysteine protease inhibitor E-64 (N-(trans-epoxysuccinyl)-L-leucine-4-guanidinobutylamide; Sigma-Aldrich, #E3132; dissolved in activation buffer/DMSO) to a final concentration of 10 μM.
The activated cathepsin A was diluted in assay buffer (25 mM MES, pH 5.5, containing 5 mM DTT) and mixed with the test compound (dissolved in assay buffer containing (v/v) 3% DMSO) or, in the control experiments, with the vehicle in a multiple assay plate. After incubation for 15 min at room temperature, as substrate then bradykinin carrying an N-Terminal®Bodipy FL (4,4-difluoro-5,7-dimethyl-4-bora-3a,4a-diaza-s-indacene-3-propionyl) label (JPT Peptide Technologies GmbH; dissolved in assay buffer) was added to the mixture. The final concentration of cathepsin A was 833 ng/ml and the final concentration of labeled bradykinin 2 μM. After incubation for 15 min at room temperature the reaction was stopped by the addition of stop buffer (130 mM 2-(4-(2-hydroxy-ethyl)-piperazin-1-yl)-ethanesulfonic acid, pH 7.4, containing (v/v) 0.013%®Triton X-100, 0.13% Coating Reagent 3 (Caliper Life Sciences), 6.5% DMSO and 20 μM ebelactone B (Sigma, #E0886)).
Uncleaved substrate and product were then separated by a microfluidic capillary electrophoresis on a LabChip® 3000 Drug Discovery System (12-Sipper-Chip; Caliper Life Sciences) and quantified by determination of the respective peak areas. Substrate turnover was calculated by dividing product peak area by the sum of substrate and product peak areas, and the enzyme activity and the inhibitory effect of the test compound thus quantified. From the percentage of inhibition of cathepsin A activity observed with the test compound at several concentrations, the inhibitory concentration IC50, i.e. the concentration which effects 50% inhibition of enzyme activity was, calculated.
Regarding `CN(C(=O)c1ccccc1)c1cc(C(=O)N[C@@H](CC(=O)O)c2ccc(Cl)cc2Cl)nn1-c1ccccc1` [Example 64, (S)-3-{[5-(Benzoyl-methyl-amino)-1-phenyl-1H-pyrazole-3-carbonyl]-amino}-3-(2,4-dichloro-phenyl)-propionic acid], the IC50 (commonly the midpoint of a concentration-inhibition curve) came to 64.7 nM.
Turning to `CN(C(=O)c1ccccc1)c1cc(C(=O)N[C@@H](CC(=O)O)c2ccccc2Cl)nn1-c1ccccc1` [Example 70, (S)-3-{[5-(Benzoyl-methyl-amino)-1-phenyl-1H-pyrazole-3-carbonyl]-amino}-3-(2-chloro-phenyl)-propionic acid], the IC50 is 5.7 nM.
Regarding `Cc1ccccc1[C@H](CC(=O)O)NC(=O)c1cc(N(C)C(=O)c2ccccc2)n(-c2ccccc2)n1` [Example 63, (S)-3-{[5-(Benzoyl-methyl-amino)-1-phenyl-1H-pyrazole-3-carbonyl]-amino}-3-o-tolyl-propionic acid], the IC50 is 57.2 nM.
In the case of `Cc1ccccc1[C@H](CC(=O)O)NC(=O)c1cc(N(CC2CC2)CC2CC2)n(-c2ccccc2)n1` [Example 51, (S)-3-{[5-(Bis-cyclopropylmethyl-amino)-1-phenyl-1H-pyrazole-3-carbonyl]-amino}-3-o-tolyl-propionic acid] it was 524 nM; in that of `O=C(O)CC(NC(=O)c1cc2[nH]c3ccccc3n2n1)c1cc(F)ccc1F` (stereo not drawn) [Example 33, 3-[(4H-Benzo[4,5]imidazo[1,2-b]pyrazole-2-carbonyl)-amino]-3-(2,5-difluoro-phenyl)-propionic acid], 2670 nM.
With `Nc1cc(C(=O)NC(CC(=O)O)c2ccc(-c3ccc(F)cc3)cc2)nn1-c1ccccc1F` (stereo not drawn) [Example 4, 3-{[5-Amino-1-(2-fluoro-phenyl)-1H-pyrazole-3-carbonyl]-amino}-3-(4′-fluoro-biphenyl-4-yl)-propionic acid], the IC50 came out at 18.5 nM.
With `Cc1ccc(C(=O)Nc2cc(C(=O)N[C@@H](CC(=O)O)c3ccc(Cl)cc3Cl)nn2-c2ccccc2)o1` [Example 62, (S)-3-(2,4-Dichloro-phenyl)-3-({5-[(5-methyl-furan-2-carbonyl)-amino]-1-phenyl-1H-pyrazole-3-carbonyl}-amino)-propionic acid], the IC50 is 175 nM.
In the case of `O=C(O)CC(NC(=O)c1cc2[nH]c3ccccc3n2n1)c1cccc(F)c1` (stereo not drawn) [Example 23, 3-[(4H-Benzo[4,5]imidazo[1,2-b]pyrazole-2-carbonyl)-amino]-3-(3-fluoro-phenyl)-propionic acid] it was 3120 nM; in that of `O=C(O)CC1(NC(=O)c2cc(NC(=O)c3ccccc3)n(-c3ccccc3)n2)CCCC1` [Example 77, {1-[(5-Benzoylamino-1-phenyl-1H-pyrazole-3-carbonyl)-amino]-cyclopentyl}-acetic acid], 73.4 nM.
In the case of `O=C(Nc1cc(C(=O)NCC(C(=O)O)c2ccccc2)nn1-c1ccccc1)c1ccccc1` (stereo not drawn) [Example 82, 3-[(5-Benzoylamino-1-phenyl-1H-pyrazole-3-carbonyl)-amino]-2-phenyl-propionic acid] it was 4870 nM; in that of `Nc1cc(C(=O)N[C@@H](CC(=O)O)c2cccc(Cl)c2Cl)nn1-c1ccccc1F` [Example 8, (S)-3-{[5-Amino-1-(2-fluoro-phenyl)-1H-pyrazole-3-carbonyl]-amino}-3-(2,3-dichloro-phenyl)-propionic acid], 23.2 nM.
`O=C(O)C[C@H](NC(=O)c1cc(NC(=O)c2ccccc2)n(-c2ccccc2)n1)c1ccccc1C(F)(F)F` [Example 84, (S)-3-[(5-Benzoylamino-1-phenyl-1H-pyrazole-3-carbonyl)-amino]-3-(2-trifluoromethyl-phenyl)-propionic acid]: the 50% inhibitory concentration (IC50) was 386 nM.
As for `Cc1ccccc1[C@H](CC(=O)O)NC(=O)c1cc(NS(C)(=O)=O)n(-c2ccccc2)n1` [Example 11, (S)-3-[(5-Methanesulfonylamino-1-phenyl-1H-pyrazole-3-carbonyl)-amino]-3-o-tolyl-propionic acid], the IC50 was determined as 25.2 nM.
For the compound `O=C(O)C[C@H](NC(=O)c1cc(NC(=O)c2ccccc2)n(-c2ccccc2)n1)c1ccc(Cl)cc1Cl` [Example 67, (S)-3-[(5-Benzoylamino-1-phenyl-1H-pyrazole-3-carbonyl)-amino]-3-(2,4-dichloro-phenyl)-propionic acid], the IC50 is 106 nM.
On to `Cc1ccc(C(=O)Nc2cc(C(=O)N[C@@H](CC(=O)O)c3ccccc3C)nn2-c2ccccc2)o1` [Example 61, (S)-3-({5-[(5-Methyl-furan-2-carbonyl)-amino]-1-phenyl-1H-pyrazole-3-carbonyl}-amino)-3-o-tolyl-propionic acid], for which the IC50 worked out at 62.6 nM.
With `O=C(O)CC(NC(=O)c1cc2[nH]c3ccccc3n2n1)c1cccc2c1OCO2` (stereo not drawn) [Example 22, 3-Benzo[1,3]dioxol-4-yl-3-[(4H-benzo[4,5]imidazo[1,2-b]pyrazole-2-carbonyl)-amino]-propionic acid], the IC50 amounted to 1110 nM.
With `Cc1ccccc1[C@H](CC(=O)O)NC(=O)c1cc2[nH]c3ccccc3n2n1` [Example 38, (S)-3-[(4H-Benzo[4,5]imidazo[1,2-b]pyrazole-2-carbonyl)-amino]-3-o-tolyl-propionic acid], the IC50 came to 219 nM.
Turning to `Cc1ccccc1[C@H](CC(=O)O)NC(=O)c1cc(NC(=O)CO[C@@H]2C[C@H](C)CC[C@H]2C(C)C)n(-c2ccccc2)n1` [Example 68, (S)-3-({5-[2-((1R,2S,5R)-2-Isopropyl-5-methyl-cyclohexyloxy)-acetylamino]-1-phenyl-1H-pyrazole-3-carbonyl}-amino)-3-o-tolyl-propionic acid], the IC50 was 1780 nM.
Regarding `Cc1ccccc1[C@H](CC(=O)O)NC(=O)c1cc(NCC(=O)C(C)(C)C)n(-c2ccccc2)n1` [Example 56, (S)-3-{[5-(3,3-Dimethyl-2-oxo-butylamino)-1-phenyl-1H-pyrazole-3-carbonyl]-amino}-3-o-tolyl-propionic acid], the IC50 is 16.1 nM.
Take `O=C(O)C[C@H](NC(=O)c1cc(NC(=O)c2ccccc2)n(-c2ccccc2)n1)c1ccc(F)cc1` [Example 78, (S)-3-[(5-Benzoylamino-1-phenyl-1H-pyrazole-3-carbonyl)-amino]-3-(4-fluoro-phenyl)-propionic acid]: the IC50 was 34.1 nM.
Take `CC(C)(CC(=O)O)NC(=O)c1cc2[nH]c3ccccc3n2n1` [Example 43, 3-[(4H-Benzo[4,5]imidazo[1,2-b]pyrazole-2-carbonyl)-amino]-3-methyl-butyric acid]: the IC50 was 5180 nM.
As to `Cc1ccc([C@H](CC(=O)O)NC(=O)c2cc(NC(=O)c3ccccc3)n(-c3ccccc3)n2)c(C)c1` [Example 79, (S)-3-[(5-Benzoylamino-1-phenyl-1H-pyrazole-3-carbonyl)-amino]-3-(2,4-dimethyl-phenyl)-propionic acid], the IC50 was 108 nM.
With `Cc1ccccc1[C@H](CC(=O)O)NC(=O)c1cc(N2CCCS2(=O)=O)n(-c2ccccc2F)n1` [Example 12, (S)-3-{[5-(1,1-Dioxo-1lambda6-isothiazolidin-2-yl)-1-(2-fluoro-phenyl)-1H-pyrazole-3-carbonyl]-amino}-3-o-tolyl-propionic acid], the IC50 was found to be 13.6 nM.
Take `Cc1ccccc1[C@H](CC(=O)O)NC(=O)c1cc(Nc2ccccn2)n(-c2ccccc2)n1` [Example 19, (S)-3-{[1-Phenyl-5-(pyridin-2-ylamino)-1H-pyrazole-3-carbonyl]-amino}-3-o-tolyl-propionic acid]: the IC50 came out at 49.7 nM.
